# Test results reported in patent US6737383B1, “Herbicidal oxadiazolidines” (priority 1999, dated 2004).
# Key:
# velvetleaf = experiment: Test B pre/postemergence velvetleaf; assay type: in vivo, Abutilon theophrasti
# Outline: (§1)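 Herbicidal effect was estimated by eye on a ten-point control scale after plants spent twelve to sixteen days in a greenhouse following soil or foliar treatment. Foliar sprays targeted plants at one to four leaves; all doses were formulated in a non-phytotoxic solvent with surfactant.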
# soybean = experiment: Test B pre/postemergence soybean; assay type: in vivo, Glycine max
# Outline: as §1
# cocklebur = experiment: Test B pre/postemergence cocklebur; assay type: in vivo, Xanthium strumarium
# Outline: as §1
# wild oat = experiment: Test B pre/postemergence wild oat; assay type: in vivo, Avena fatua
# Outline: as §1
# morningglory = experiment: Test B pre/postemergence morningglory; assay type: in vivo, Ipomoea hederacea
# Outline: as §1
# smallflower flatsedge = experiment: Test B flood test smallflower flatsedge; assay type: in vivo, Cyperus difformis
# Outline: (§2)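 Read-out is a visual response score from 0 (no effect) to 10 (complete control), assigned by comparison with untreated controls. Treatment was applied at the 2-leaf stage, and plants stayed in the greenhouse for twelve to sixteen days before scoring.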
# wheat = experiment: Test B pre/postemergence wheat; assay type: in vivo, Triticum aestivum
# Outline: as §1
# purple nutsedge = experiment: Test B pre/postemergence purple nutsedge; assay type: in vivo, Cyperus rotundus
# Outline: as §1
# giant foxtail = experiment: Test B pre/postemergence giant foxtail; assay type: in vivo, Setaria faberii
# Outline: as §1
# corn = experiment: Test B pre/postemergence corn; assay type: in vivo, Zea mays
# Outline: as §1
# blackgrass = experiment: Test B pre/postemergence blackgrass; assay type: in vivo, Alopecurus myosuroides
# Outline: as §1
# bedstraw = experiment: Test B pre/postemergence bedstraw; assay type: in vivo, Galium aparine
# Outline: as §1
# rice = experiment: Test B flood test rice; assay type: in vivo, Oryza sativa
# Outline: as §2
# bamyardgrass = experiment: Test B flood test barnyardgrass; assay type: in vivo, Echinochloa crus-galli
# Outline: as §2
# surinam grass = experiment: Test B pre/postemergence surinam grass; assay type: in vivo, Brachiaria decumbens
# Outline: as §1
# duck salad = experiment: Test B flood test duck salad; assay type: in vivo, Heteranthera limosa
# Outline: as §2
# crabgrass = experiment: Test B pre/postemergence crabgrass; assay type: in vivo, Digitaria sanguinalis
# Outline: as §1
# [1] = Postemergence, Rate 62 g/ha, scale 0 to 10, 0 is no effect, 10 is complete control
# [2] = Postemergence, Rate 250 g/ha, scale 0 to 10, 0 no effect, 10 complete control
# [3] = Preemergence, Rate 62 g/ha, scale 0 to 10, 0 is no effect, 10 is complete control
# [4] = Preemergence, Rate 125 g/ha, scale 0 to 10 (0 no effect, 10 complete control)
# [5] = Preemergence, Rate 250 g/ha, scale of 0 to 10 where 0 is no effect and 10 is complete control
# [6] = Preemergence, Rate 500 g/ha, scale 0 (no effect) to 10 (complete control)
# [7] = Rate 125 g/ha, Postemergence, scale 0 to 10, 0 no effect, 10 complete control
# [8] = Rate 500 g/ha, Postemergence, 0 to 10 scale (0 no effect, 10 complete control)
# [9] = Rate 125 g/ha, Postemergence section (flood test species), scale 0 to 10, 0 no effect, 10 complete control
# [10] = flood test, listed under Postemergence, Rate 250 g/ha, scale 0 to 10, 0 no effect, 10 complete control
# [11] = Rate 500 g/ha, Postemergence section of Table B, 0 to 10 scale (0 no effect, 10 complete control)
smiles,measurement,setting,value
CCc1ccccc1-n1c(=O)on(C(=O)N(c2ccc(F)cc2F)C(C)C)c1=O [Compound 45],Velvetleaf plant response rating,velvetleaf; [1],0
same,Velvetleaf plant response rating,velvetleaf; [2],0
same,"Plant response rating, Velvetleaf",velvetleaf; [3],0
same,"Plant response rating, Velvetleaf",velvetleaf; [4],0
same,"Plant response rating, Velvetleaf",velvetleaf; [5],0
same,Velvetleaf plant response rating,velvetleaf; [6],3
same,Velvetleaf plant response rating,velvetleaf; [7],0
same,Soybean plant response rating,soybean; [1],1
same,Soybean plant response rating,soybean; [2],1
same,"Plant response rating, Soybean",soybean; [3],0
same,"Plant response rating, Soybean",soybean; [4],0
same,"Plant response rating, Soybean",soybean; [5],0
same,Soybean plant response rating,soybean; [6],3
same,Soybean plant response rating,soybean; [7],1
same,Cocklebur plant response rating,cocklebur; [1],0
same,Cocklebur plant response rating,cocklebur; [2],2
same,"Plant response rating, Cocklebur",cocklebur; [3],0
same,"Plant response rating, Cocklebur",cocklebur; [4],0
same,"Plant response rating, Cocklebur",cocklebur; [5],0
same,Cocklebur plant response rating,cocklebur; [6],0
same,Cocklebur plant response rating,cocklebur; [7],1
same,Cocklebur plant response rating,cocklebur; [8],5
same,Wild oats plant response rating,wild oat; [1],0
same,Wild oats plant response rating,wild oat; [2],0
same,"Plant response rating, Wild oats",wild oat; [4],0
same,"Plant response rating, Wild oats",wild oat; [5],0
same,Wild oats plant response rating,wild oat; [6],0
same,Wild oats plant response rating,wild oat; [7],0
same,Morningglory plant response rating,morningglory; [1],0
same,Morningglory plant response rating,morningglory; [2],0
same,"Plant response rating, Morningglory",morningglory; [3],0
same,"Plant response rating, Morningglory",morningglory; [4],0
same,"Plant response rating, Morningglory",morningglory; [5],0
same,Morningglory plant response rating,morningglory; [6],0
same,Morningglory plant response rating,morningglory; [7],0
same,Morningglory plant response rating,morningglory; [8],3
same,S. Flatsedge plant response rating,smallflower flatsedge; [1],0
same,S. Flatsedge plant response rating,smallflower flatsedge; [9],0
same,S. Flatsedge plant response rating,smallflower flatsedge; [10],0
same,Wheat plant response rating,wheat; [1],0
same,Wheat plant response rating,wheat; [2],0
same,"Plant response rating, Wheat",wheat; [3],0
same,"Plant response rating, Wheat",wheat; [4],0
same,"Plant response rating, Wheat",wheat; [5],0
same,Wheat plant response rating,wheat; [6],0
same,Wheat plant response rating,wheat; [7],0
same,Nutsedge plant response rating,purple nutsedge; [1],0
same,Nutsedge plant response rating,purple nutsedge; [2],0
same,"Plant response rating, Nutsedge",purple nutsedge; [3],0
same,"Plant response rating, Nutsedge",purple nutsedge; [4],0
same,"Plant response rating, Nutsedge",purple nutsedge; [5],0
same,Nutsedge plant response rating,purple nutsedge; [6],0
same,Nutsedge plant response rating,purple nutsedge; [7],0
same,Nutsedge plant response rating,purple nutsedge; [8],0
same,Giant foxtail plant response rating,giant foxtail; [1],0
same,Giant foxtail plant response rating,giant foxtail; [2],9
same,"Plant response rating, Giant foxtail",giant foxtail; [3],7
same,"Plant response rating, Giant foxtail",giant foxtail; [4],10
same,"Plant response rating, Giant foxtail",giant foxtail; [5],10
same,Giant foxtail plant response rating,giant foxtail; [6],10
same,Giant foxtail plant response rating,giant foxtail; [7],0
same,Giant foxtail plant response rating,giant foxtail; [8],9
same,Corn plant response rating,corn; [1],0
same,Corn plant response rating,corn; [2],0
same,"Plant response rating, Corn",corn; [3],0
same,"Plant response rating, Corn",corn; [4],0
same,"Plant response rating, Corn",corn; [5],0
same,Corn plant response rating,corn; [6],1
same,Corn plant response rating,corn; [7],0
same,Corn plant response rating,corn; [8],0
same,Blackgrass plant response rating,blackgrass; [1],0
same,Blackgrass plant response rating,blackgrass; [2],4
same,"Plant response rating, Blackgrass",blackgrass; [3],0
same,"Plant response rating, Blackgrass",blackgrass; [4],0
same,"Plant response rating, Blackgrass",blackgrass; [5],0
same,Blackgrass plant response rating,blackgrass; [6],0
same,Blackgrass plant response rating,blackgrass; [7],0
same,Blackgrass plant response rating,blackgrass; [8],4
same,Bedstraw plant response rating,bedstraw; [1],3
same,"Plant response rating, Bedstraw",bedstraw; [3],0
same,"Plant response rating, Bedstraw",bedstraw; [4],0
same,"Plant response rating, Bedstraw",bedstraw; [5],0
same,Bedstraw plant response rating,bedstraw; [6],0
same,Bedstraw plant response rating,bedstraw; [7],5
same,Rice plant response rating,rice; [1],0
same,Rice plant response rating,rice; [9],0
same,Rice plant response rating,rice; [11],0
same,Rice plant response rating,rice; [10],0
same,Barnyardgrass plant response rating,bamyardgrass; [1],0
same,Barnyardgrass plant response rating,bamyardgrass; [9],0
same,Barnyardgrass plant response rating,bamyardgrass; [11],0
same,Barnyardgrass plant response rating,bamyardgrass; [10],0
same,B. signalgrass plant response rating,surinam grass; [1],0
same,B. signalgrass plant response rating,surinam grass; [2],0
same,"Plant response rating, B. signalgrass",surinam grass; [3],0
same,"Plant response rating, B. signalgrass",surinam grass; [4],2
same,"Plant response rating, B. signalgrass",surinam grass; [5],4
same,B. signalgrass plant response rating,surinam grass; [6],9
same,B. signalgrass plant response rating,surinam grass; [7],0
same,B. signalgrass plant response rating,surinam grass; [8],2
same,Ducksalad plant response rating,duck salad; [1],0
same,Ducksalad plant response rating,duck salad; [9],0
same,Ducksalad plant response rating,duck salad; [11],0
same,Ducksalad plant response rating,duck salad; [10],0
same,Crabgrass plant response rating,crabgrass; [1],0
same,Crabgrass plant response rating,crabgrass; [2],2
same,"Plant response rating, Crabgrass",crabgrass; [3],0
same,"Plant response rating, Crabgrass",crabgrass; [4],1
same,"Plant response rating, Crabgrass",crabgrass; [5],1
same,Crabgrass plant response rating,crabgrass; [6],9
same,Crabgrass plant response rating,crabgrass; [7],0
same,Crabgrass plant response rating,crabgrass; [8],3
